Experimental data published in the supplement of paper PMC11061612.

Legend:
Assay in all cases: combination Emax (second highest fraction inhibited in the dose matrix, 72 h); higher = more inhibition; extreme values may be limits of the assay
786-0 (Kidney Carcinoma) = tested on: 786-0 (Kidney Carcinoma)
Summary of the method: (§1)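 Bliss excess equals the observed combination effect minus the expected value EA + EB − EA·EB, where EA and EB are the effects of each agent alone. Combination Emax is the second-highest inhibition within the matrix. Inhibition was scaled from CellTiter-Glo 2.0 luminescence, with 0 set by vehicle wells and 1 by blank wells, after 72 hours of two-drug dosing of cells plated in 1536-well plates.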

[1] = tested on: AN3-CA (Endometrial Carcinoma)
Summary of the method: as §1

[2] = tested on: AsPC-1 (Pancreatic Carcinoma)
Summary of the method: as §1

[3] = tested on: BALL-1 (B-Lymphoblastic Leukemia)
Summary of the method: as §1

[4] = tested on: Becker (Low Grade Glioma)
Summary of the method: as §1

CHL-1 (Melanoma) = tested on: CHL-1 (Melanoma)
Summary of the method: as §1

[5] = tested on: Calu-6 (Non-Small Cell Lung Carcinoma)
Summary of the method: as §1

[6] = tested on: EB-3 (Burkitt's Lymphoma)
Summary of the method: as §1

[7] = tested on: HSC-3 (Oral Cavity Carcinoma)
Summary of the method: as §1

[8] = tested on: KYSE-70 (Esophageal Squamous Cell Carcinoma)
Summary of the method: as §1

[9] = tested on: LOUCY (T-Lymphoblastic Leukemia)
Summary of the method: as §1

[10] = tested on: NCI-H1155 (Non-Small Cell Lung Carcinoma)
Summary of the method: as §1

[11] = tested on: NCI-H1563 (Lung Adenocarcinoma)
Summary of the method: as §1

[12] = tested on: NCI-H1755 (Lung Adenocarcinoma)
Summary of the method: as §1

[13] = tested on: OV-90 (Ovarian Carcinoma)
Summary of the method: as §1

[14] = tested on: RERF-LC-KJ (Lung Adenocarcinoma)
Summary of the method: as §1

[15] = tested on: RMG-I (Ovarian Carcinoma)
Summary of the method: as §1

RT4 (Bladder Carcinoma) = tested on: RT4 (Bladder Carcinoma)
Summary of the method: as §1

[16] = tested on: SJRH30 (Rhabdomyosarcoma)
Summary of the method: as §1

SMILES | combination Emax (786-0 (Kidney Carcinoma)) | combination Emax [1] | combination Emax [2] | combination Emax [3] | combination Emax [4] | combination Emax (CHL-1 (Melanoma)) | combination Emax [5] | combination Emax [6] | combination Emax [7] | combination Emax [8] | combination Emax [9] | combination Emax [10] | combination Emax [11] | combination Emax [12] | combination Emax [13] | combination Emax [14] | combination Emax [15] | combination Emax (RT4 (Bladder Carcinoma)) | combination Emax [16]
NC1(C(=O)N[C@@H](CCO)c2ccc(Cl)cc2)CCN(c2ncnc3[nH]ccc23)CC1 [Capivasertib] + C[C@@H]1COCCN1C2=NC(=NC(=C2)C3(CC3)[S@](=N)(=O)C)C4=C5C=CNC5=NC=C4 [AZD6738] (first compound max 10 µM, 7x7, partner max 10 µM) | 0.809 | 0.849 | 0.329 | 1 | 0.747 | 0.732 | 0.792 | 0.651 | 0.764 | 0.377 | 0.979 | 0.816 | 0.501 | 0.83 | 0.614 | 0.478 | 0.385 | 0.577 | 0.89
NC1(C(=O)N[C@@H](CCO)c2ccc(Cl)cc2)CCN(c2ncnc3[nH]ccc23)CC1 [Capivasertib] + Cn1cnc2c(F)c(Nc3ccc(Br)cc3Cl)c(C(=O)NOCCO)cc21 [Selumetinib] (first compound max 10 µM, 7x7, partner max 10 µM) | 0.696 | 0.815 | 0.491 | 0.478 | 0.65 | 0.367 | 0.707 | 0.325 | 0.786 | 0.374 | 0.66 | 0.473 | 0.4 | 0.644 | 0.627 | 0.436 | 0.392 | 0.45 | 0.769
COc1nnc2ccc(N3CCC(c4ccc(OCCN5CCN(C)C(=O)[C@H]5C)cc4)CC3)nn12 [AZD5153] + C=CCn1c(=O)c2cnc(Nc3ccc(N4CCN(C)CC4)cc3)nc2n1-c1cccc(C(C)(C)O)n1 [AZD1775] (first compound max 1 µM, partner max 1 µM) | 0.641 | 0.435 | 0.381 | 1 | 0.384 | 0.624 | 0.854 | 0.814 | 0.795 | 0.47 | 1 | 0.814 | 0.564 | 0.8 | 0.378 | 0.957 | 0.592 | 0.571 | 0.942
COc1cc2ncnc(Nc3ccc(F)c(Cl)c3)c2cc1OCCCN1CCOCC1 [Gefitinib] + CC(C)n1c(=O)n(C)c2cnc3cc(F)c(-c4ccc(OCCCN5CCCCC5)nc4)cc3c21 [AZD1390] (first compound max 10 µM, 7x7, partner max 0.3 µM) | 0.247 | 0.01 | 0.13 | 0.279 | 0.126 | 0.409 | 0.128 | 0.456 | 0.623 | 0.098 | 0.296 | 0.0815 | 0.228 | 0.264 | 0.12 | 0.351 | 0.413 | 0.128 | 0
NC1(C(=O)N[C@@H](CCO)c2ccc(Cl)cc2)CCN(c2ncnc3[nH]ccc23)CC1 [Capivasertib] + COc1nnc2ccc(N3CCC(c4ccc(OCCN5CCN(C)C(=O)[C@H]5C)cc4)CC3)nn12 [AZD5153] (first compound max 10 µM, 7x7, partner max 1 µM) | 0.733 | 0.75 | 0.268 | 0.973 | 0.593 | 0.708 | 0.461 | 0.752 | 0.861 | 0.358 | 0.998 | 0.822 | 0.76 | 0.717 | 0.596 | 0.877 | 0.456 | 0.457 | 0.876
COc1nnc2ccc(N3CCC(c4ccc(OCCN5CCN(C)C(=O)[C@H]5C)cc4)CC3)nn12 [AZD5153] + CCN(CCO)CCCOc1ccc2c(Nc3cc(CC(=O)Nc4cccc(F)c4)[nH]n3)ncnc2c1 [AZD2811] (first compound max 1 µM, 7x7, partner max 1 µM) | 0.552 | 0.297 | 0.258 | 0.948 | 0.423 | 0.58 | 0.301 | 0.757 | 0.773 | 0.458 | 0.97 | 0.726 | 0.488 | 0.654 | 0.352 | 0.971 | 0.546 | 0.516 | 0.799
C[C@@H](c1ccc2nccn2c1)n1nnc2ncc(-c3cnn(C)c3)nc21 [Savolitinib] + CC1(C)CCC(CN2CCN(c3ccc(C(=O)NS(=O)(=O)c4ccc(NCC5CCOCC5)c([N+](=O)[O-])c4)c(Oc4cnc5[nH]ccc5c4)c3)CC2)=C(c2ccc(Cl)cc2)C1 [Venetoclax] (first compound max 1 µM, 7x7, partner max 1 µM) | 0.159 | 0.0904 | 0.107 | 1 | 0.344 | 0.118 | 0.194 | 0.253 | 0.107 | 0.095 | 0.976 | 0.149 | 0.18 | 0.101 | 0.133 | 0.15 | 0.208 | 0.12 | 0.126
NC1(C(=O)N[C@@H](CCO)c2ccc(Cl)cc2)CCN(c2ncnc3[nH]ccc23)CC1 [Capivasertib] + CC(C)n1c(=O)n(C)c2cnc3cc(F)c(-c4ccc(OCCCN5CCCCC5)nc4)cc3c21 [AZD1390] (first compound max 10 µM, 7x7, partner max 0.3 µM) | 0.489 | 0.756 | 0.208 | 0.576 | 0.522 | 0.126 | 0.222 | 0.522 | 0.608 | 0.259 | 0.623 | 0.357 | 0.452 | 0.443 | 0.284 | 0.449 | 0.292 | 0.0517 | 0.701
C[C@@H](c1ccc2nccn2c1)n1nnc2ncc(-c3cnn(C)c3)nc21 [Savolitinib] + Cc1c2c(nn1C)CSCc1cc(n(C)n1)CSc1cc(c3ccccc3c1)OCCCc1c(C(=O)O)n(C)c3c-2c(Cl)ccc13 [AZD5991] (first compound max 1 µM, 7x7, partner max 1 µM) | 0.183 | 0.308 | 0.184 | 0.612 | 0.366 | 0.291 | 0.172 | 0.361 | 0.206 | 0.107 | 0.46 | 0.114 | 0.465 | 0.173 | 0.185 | 0.301 | 0.216 | 0.25 | 0.464
C=CCn1c(=O)c2cnc(Nc3ccc(N4CCN(C)CC4)cc3)nc2n1-c1cccc(C(C)(C)O)n1 [AZD1775] + C1CN(CCC1(C(=O)N[C@@H](CCO)C2=CC=C(C=C2)Cl)N)C3=NC=NC4=C3C=CN4 [Capivasertib] (first compound max 3 µM, partner max 3 µM) | 0.817 | 0.905 | 0.505 | 1 | 0.602 | 0.826 | 0.8 | 0.829 | 0.773 | 0.534 | 1 | 0.831 | 0.459 | 0.8 | 0.587 | 0.548 | 0.47 | 0.712 | 0.955
COc1nnc2ccc(N3CCC(c4ccc(OCCN5CCN(C)C(=O)[C@H]5C)cc4)CC3)nn12 [AZD5153] + CN(CC[C@H](CSC1=CC=CC=C1)NC2=C(C=C(C=C2)S(=O)(=O)NC(=O)C3=CC=C(C=C3)N4CCC(CC4)[C@H](C5=CC=CC=C5C6=CC=C(C=C6)Cl)O)S(=O)(=O)C(F)(F)F)CCO [AZD4320] (first compound max 1 µM, 7x7, partner max 1 µM) | 0.557 | 0.255 | 0.559 | 1 | – | – | 0.574 | – | 0.712 | – | – | 0.974 | 0.536 | – | – | 0.979 | – | 0.545 | 0.706
CC(=O)c1c(C)c2cnc(Nc3ccc(N4CCNCC4)cn3)nc2n(C2CCCC2)c1=O [Palbociclib] + CN(CC[C@H](CSC1=CC=CC=C1)NC2=C(C=C(C=C2)S(=O)(=O)NC(=O)C3=CC=C(C=C3)N4CCC(CC4)[C@H](C5=CC=CC=C5C6=CC=C(C=C6)Cl)O)S(=O)(=O)C(F)(F)F)CCO [AZD4320] (first compound max 10 µM, 7x7, partner max 1 µM) | 0.534 | 0.709 | 0.488 | 1 | – | – | 0.623 | – | 0.613 | – | – | 0.994 | 0.348 | – | – | 0.141 | – | 0.383 | 0.37
C[C@@H](c1ccc2nccn2c1)n1nnc2ncc(-c3cnn(C)c3)nc21 [Savolitinib] + CN(CC[C@H](CSC1=CC=CC=C1)NC2=C(C=C(C=C2)S(=O)(=O)NC(=O)C3=CC=C(C=C3)N4CCC(CC4)[C@H](C5=CC=CC=C5C6=CC=C(C=C6)Cl)O)S(=O)(=O)C(F)(F)F)CCO [AZD4320] (first compound max 1 µM, 7x7, partner max 1 µM) | 0.149 | 0.217 | 0.572 | 1 | – | – | 0.414 | – | 0.185 | – | – | 0.582 | 0.213 | – | – | 0.206 | – | 0.376 | 0.265
